The source of these data is ChEMBL document CHEMBL1201862, “PubChem BioAssay data set” (2004).

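Exposure lasted 48 hours, with cells grown in 96-well plates and compounds tested at five concentrations. GI50 is the concentration that inhibits growth by half.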 Activity calls are given as the source filed them. Cut-off read from the data, not from the text of the source: active = GI50 up to about 1.1 µM and inactive = higher.

Among the test systems are 786-0; DMS-114; KM12; SF-295; IGROV-1; OVCAR-8; SNB-19; NCI-H226; HCT-116; HOP-62; OVCAR-5; SK-MEL-5; HT-29; U-251; SK-OV-3; DMS-273; NCI-H522; SK-MEL-2; RPMI-8226; BT-549.
Common to all, as to assay: inhibition of tumour cell growth, NCI panel, 48 h

As for `COc1ccc2c(CN3CCCCC3CO)cc3cc(OC)c(OC)cc3c2c1` (stereo unspecified), the GI50 was 4.8 µM (inactive) in the experiment on 786-0; 3.49 µM (inactive) in the experiment with DMS-114; 4.35 µM (inactive) with KM12; 3.02 µM (inactive) in the experiment on SF-295; 13.2 µM (inactive) in the experiment on IGROV-1; 4.42 µM (inactive) in the experiment on OVCAR-8. For the same compound, the GI50 in the experiment with SNB-19 was 4.04 µM (inactive); with NCI-H226, 4.32 µM (inactive); in the experiment with HCT-116 it was 1.75 µM (inactive); in the experiment on HOP-62, 6.43 µM (inactive); in the experiment with OVCAR-5, 3.1 µM (inactive); with SK-MEL-5, 7.5 µM (inactive). Also, the GI50 in the experiment on HT-29 is 2.43 µM (inactive); with U-251, 5.85 µM (inactive); in the experiment with SK-OV-3, 14.6 µM (inactive); in the experiment on DMS-273 it was 2.65 µM (inactive); in the experiment on NCI-H522, 2.52 µM (inactive); in the experiment on SK-MEL-2, 4.17 µM (inactive). Further, the GI50 in the experiment with RPMI-8226 was 3.48 µM (inactive).
For `C/C(CC(=O)Nc1ccc(NC(=O)C/C(C)=N\NC(N)=O)cc1)=N/NC(N)=O`, the GI50 was > 68.9 µM (inactive) in the experiment on 786-0; > 35.6 µM (inactive) in the experiment on DMS-114; > 100 µM (inactive) in the experiment on KM12; > 100 µM (inactive) in the experiment on SF-295; > 100 µM (inactive) with IGROV-1; > 100 µM (inactive) in the experiment on OVCAR-8. Further, the GI50 was > 100 µM (inactive) in the experiment on SNB-19; > 100 µM (inactive) in the experiment on NCI-H226; > 68.9 µM (inactive) in the experiment with HCT-116; > 100 µM (inactive) with HOP-62; > 100 µM (inactive) with OVCAR-5; > 100 µM (inactive) with SK-MEL-5. Besides, the GI50 with HT-29 is 96.8 µM (inactive); in the experiment with U-251 it was > 78 µM (inactive); with SK-OV-3, > 100 µM (inactive); in the experiment on DMS-273, > 37.1 µM (inactive); in the experiment with NCI-H522, > 51.5 µM (inactive); in the experiment on SK-MEL-2 it was > 95.3 µM (inactive). Also, in the experiment with RPMI-8226, the GI50 is 24.8 µM (inactive).
Regarding `C[N+]1(C)C/C(=C\C=C\c2ccccc2)C(=O)/C(=C/C=C/c2ccccc2)C1`, the GI50 in the experiment with 786-0 is 17.8 µM (inactive); in the experiment with DMS-114 it was 2.72 µM (inactive); in the experiment with KM12, 2.93 µM (inactive); in the experiment on SF-295 it was 23.8 µM (inactive); with BT-549, 1.92 µM (inactive); in the experiment with IGROV-1, 2.99 µM (inactive). Besides, the GI50 with OVCAR-8 was 14.5 µM (inactive); in the experiment on SNB-19, 6.08 µM (inactive); in the experiment with NCI-H226 it was 22.3 µM (inactive); with HCT-116, 9.48 µM (inactive); in the experiment on HOP-62 it was 21.3 µM (inactive); in the experiment on OVCAR-5, 24.3 µM (inactive). Moreover, the GI50 is 6.24 µM (inactive) in the experiment with SK-MEL-5; 9.53 µM (inactive) in the experiment on HT-29; 3.89 µM (inactive) in the experiment with U-251; 37.7 µM (inactive) in the experiment on SK-OV-3; 1.62 µM (inactive) in the experiment on DMS-273; 3.78 µM (inactive) in the experiment on NCI-H522. The GI50 in the experiment on SK-MEL-2 is 17 µM (inactive); with RPMI-8226, 2.07 µM (inactive).
For `NC(=O)NNC/C(Cl)=C(\Cl)C(=O)O`, the GI50 with 786-0, with DMS-114, with KM12, in the experiment on SF-295, in the experiment with IGROV-1 and in the experiment with OVCAR-8 was > 100 µM (inactive) in each case. The GI50 in the experiment with SNB-19 is > 100 µM (inactive); with NCI-H226, > 50 µM (inactive); with HCT-116, > 100 µM (inactive); in the experiment with HOP-62, > 100 µM (inactive); in the experiment with OVCAR-5, > 100 µM (inactive); in the experiment on SK-MEL-5 it was > 100 µM (inactive). Besides, the GI50 with HT-29, in the experiment on U-251, in the experiment on SK-OV-3, with DMS-273, with NCI-H522 and in the experiment with SK-MEL-2 was > 100 µM (inactive) in each case. In the experiment with RPMI-8226, the GI50 is > 100 µM (inactive).
Take `O=C(NC(=O)c1ccccc1[N+](=O)[O-])Nc1ccc(Oc2ncc(Br)cn2)c(Cl)c1`: the GI50 is 0.0215 µM (active) in the experiment with 786-0; < 0.0184 µM (active) with DMS-114; 0.023 µM (active) with KM12; 0.0137 µM (active) in the experiment with SF-295; 0.0703 µM (active) in the experiment on BT-549; 0.0258 µM (active) in the experiment with IGROV-1. The GI50 in the experiment with OVCAR-8 is 0.0301 µM (active); in the experiment with SNB-19, 0.0278 µM (active); with NCI-H226, 0.0148 µM (active); with HCT-116, 0.0255 µM (active); in the experiment on HOP-62 it was 0.0249 µM (active); with OVCAR-5, 0.0207 µM (active). Further, the GI50 in the experiment on SK-MEL-5 was 0.0224 µM (active); with HT-29 it was 0.0175 µM (active); in the experiment with U-251 it was 0.0427 µM (active); with SK-OV-3, 0.0269 µM (active); with DMS-273, 0.0165 µM (active); in the experiment on NCI-H522, 0.0131 µM (active). In addition, the GI50 in the experiment on SK-MEL-2 was 0.0213 µM (active); in the experiment on RPMI-8226, 0.0256 µM (active).
In the case of `N#C/C(=C\c1ccc(O)c(O)c1)C(N)=S` [TYRPHOSTIN 47], the GI50 in the experiment with 786-0 is 56.6 µM (inactive); in the experiment on DMS-114, 18.2 µM (inactive); in the experiment on KM12 it was 68.2 µM (inactive); with SF-295 it was 82.8 µM (inactive); in the experiment on IGROV-1, > 100 µM (inactive); in the experiment with OVCAR-8, > 100 µM (inactive). The GI50 with SNB-19 was > 70.3 µM (inactive); with NCI-H226 it was > 100 µM (inactive); in the experiment with HCT-116 it was 50.2 µM (inactive); in the experiment on HOP-62, > 100 µM (inactive); with OVCAR-5 it was > 100 µM (inactive); in the experiment with SK-MEL-5, 71.1 µM (inactive). The GI50 was 61.8 µM (inactive) in the experiment on HT-29; 70.5 µM (inactive) in the experiment on U-251; > 100 µM (inactive) in the experiment with SK-OV-3; > 79.1 µM (inactive) in the experiment on DMS-273; 16.2 µM (inactive) with NCI-H522; > 100 µM (inactive) in the experiment on SK-MEL-2. Further, the GI50 with RPMI-8226 was > 49.2 µM (inactive).
